Data published in patent US11458175B2, “Composition comprising Lactobacillus plantarum CJLP475 strain and Lactobacillus plantarum CJLP243 strain and use thereof” (CJ CHEILJEDANG CORPORATION, priority 2018, dated 2022).

How the values were obtained:
[1] = test system: red blood cells (sheep blood 5% agar); assay: Hemolytic activity on blood agar plates; type: cell-based; conditions: 37° C., 24 hours
Experimental: […]-Hemolysis is a phenomenon in which phospholipids supplied by red blood cells are hydrolyzed by phospholipid enzymes produced from harmful bacteria, resulting in hemolysis of red blood cells. In order to determine the hemolytic activity of the Lactobacillus plantarum CJLP475 strain and the Lactobacillus plantarum CJLP243 strain, blood agar plates (sheep blood 5% agar, Hanilkomed, Korea) were used. The strains were streaked into the prepared blood agar plates and incubated at 37° C. for 24 hours to confirm the hemolysis.

sows = assay: Effect on immunity and colostrum of sows (IgA and IgG ELISA); type: in vivo; conditions: vs control; for total IgA content in the serum of sows / total IgG content in the serum of sows: sows fed 10^10 to 10^11 CFU per day for 4 weeks
Experimental: An experiment was carried out in order to confirm the effect of the composition including the Lactobacillus plantarum CJLP475 strain and the Lactobacillus plantarum CJLP243 strain on the immunity and colostrum of sows when the composition was given to the sows, as follows: fifteen sows at 6 weeks before delivery in the same delivery period were selected randomly for each experimental group from the farms in which no PED virus had occurred. All of the sows used in the experiment were inoculated with the PED virus vaccine at 5 weeks and 2 weeks before delivery. The experiment was carried out in a total of four experimental groups, i.e., a control group in which no strain was fed, a group fed with CJLP475 alone, a group fed with CJLP243 alone, and a group fed with the composition including CJLP475 strain and CJLP243 strain. The feed was given in the form of common feeds without antibiotics, and water was given to be consumed freely. The Lactobacillus plantarum CJLP475 strain, the Lactobacillus plantarum CJLP243 strain, and the composition were produced in the form of freeze-dried powder and stored in a refrigerator, and then added on top of the feed when given to the sows so that each sow was given the feed in an amount of 10^10 to 10^11 CFU per day according to the treatment conditions. The sows were fed for a total of 4 weeks, and then the serum and colostrum of the sows were examined using an IgA and IgG ELISA kit.

[2] = Bile-resistance assessment in artificial bile medium (viable cell count); type: physicochemical; conditions: artificial bile medium (MRS with 0.5% oxgall), 37° C.
Experimental: An artificial bile medium was prepared for the assessment of bile-resistance. More specifically, the artificial bile medium was prepared by adding 0.5% oxgall (bull bile) to a liquid MRS medium, followed by sterilization.
The strains of Example 1 were subjected to a static culture in a liquid MRS medium at 37° C. for 18 hours after the second subculture. 1% of the pre-incubated strains were inoculated to the artificial bile medium and subjected to a static culture at 37° C., and the culture broth was sampled at 0 hour and 24 hours. The sampled culture broth was serial diluted and smeared on the solid MRS medium, and incubated at 37° C. for 48 hours to measure viable cell count.
(§1) In order to compare the acid-resistance and bile-resistance of the Lactobacillus plantarum CJLP475 strain and the Lactobacillus plantarum CJLP243 strain with those of the conventionally known strains, the acid-resistance and the bile-resistance of the Lactobacillus plantarum standard strain (KCCM12116) obtained from the Korean Culture Center of Microorganisms were assessed in the same manner as the above method.

[3] = Acid-resistance assessment in artificial gastric juice medium (viable cell count); type: physicochemical; conditions: artificial gastric juice medium (MRS with pepsin, pH 2.5), 37° C.
Experimental: An artificial gastric juice medium was prepared for the assessment of acid-resistance. More specifically, the artificial gastric juice medium was prepared by adding pepsin to a liquid MRS medium so as to adjust the pH to 2.5, followed by sterilization.
The strains of Example 1 were subjected to a static culture in a liquid MRS medium at 37° C. for 18 hours after the second subculture. 1% of the pre-incubated strains were inoculated to the artificial gastric juice medium and subjected to a static culture at 37° C., and the culture broth was sampled at 0 hour and 3 hours. The sampled culture broth was serial diluted and smeared on the solid MRS medium, and incubated at 37° C. for 48 hours to measure viable cell count.
as §1

[4] = Antibiotic susceptibility test with antibiotic discs; conditions: for resistance to antibiotics: ampicillin, clindamycin, gentamicin, kanamycin, erythromycin, ampicillin/sulbactam, chloramphenicol, streptomycin discs
Experimental: The Lactobacillus plantarum CJLP475 strain and the Lactobacillus plantarum CJLP243 strain were independently inoculated into a liquid MRS medium and subjected to a static culture at 37° C. for 24 hours. The thus-cultured bacteria were soaked in sterilized cotton swabs and smeared on a Mueller Hinton II solid medium (Difco), and then antibiotic discs were placed on the medium and incubated at 37° C. for 24 hours. Ampicillin, clindamycin, gentamicin, kanamycin, erythromycin, ampicillin/sulbactam, chloramphenicol, and streptomycin discs (Oxoid, UK) were used as antibiotic discs for the antibiotic test.

[5] = test system: porcine epidemic diarrhea virus (PEDV, SM98 or KPEDV9 strain); assay: Inhibitory effect against viral infection, PBMC culture broth on IPEC-J2 cells; type: cell-based; conditions: PBMC culture broth on IPEC-J2, PED virus 100 TCID50/mL, 48 hours
Experimental: In order to measure the inhibitory effect of the composition including the Lactobacillus plantarum CJLP475 strain and the Lactobacillus plantarum CJLP243 strain against viral infection, porcine epidemic diarrhea virus (PEDV, SM98 or KPEDV9 strain) was prepared. Specifically, the virus was proliferated in Vero cells (CCL-81, kidney epithelial cells extracted from Chlorocebus), and MEM (Eagle's Minimum Essential Medium, Gibco BRL, USA), heat-inactivated 10% FBS (fetal bovine serum, v/v) and 1% (v/v) penicillin/streptomycin were as the media for culturing Vero cells. The Vero cells were incubated as a monolayer, washed twice with the media, and then all the solutions were removed. The virus was mixed at 0.1 MOI (multiplicity of infection) level in FBS-free MEM containing trypsin treated with 5 μg/ml TPCK (N-tosyl-L-phenylalanine chloromethyl ketone), treated with a minimal volume of the prepared culture cells, and then incubated in a 37° C. cell incubator containing 5% CO2 for 2 to 3 days.
The viral infection was determined by the formation of virus syncytia. […] Subsequently, the cells were added with a culture broth, in which the virus was subjected to a 2-fold serial dilution, and incubated for 24 to 48 hours to confirm viral infection, and the virus titer was calculated by the Reed & Muench method. […]

PED virus SM98 = assay: Inhibition of PED virus infection by immune cells of weaned piglets fed with the strains; type: in vivo; set-up: key: ++: Complete Inhibition; +: Partial Inhibition; −: Infected; conditions: piglets fed 10^10 CFU per day for 3 weeks; for Inhibitory Effect against PED virus infection, mLN, SM98: immune cells of mesenteric lymph nodes; for Inhibitory Effect against PED virus infection, Spin, SM98: immune cells of spleen
Experimental: (§2) In order to confirm the effect of the composition including the Lactobacillus plantarum CJLP243 strain and the Lactobacillus plantarum CJLP475 strain on the immunity upon feeding, an experiment was carried out as follows:
(§3) Thirty-two 21-day-old weaned piglets were purchased and raised in a container farm for 3 weeks. The feed was given in the form of common crumble feeds without antibiotics. The composition including the Lactobacillus plantarum CJLP475 strain and the Lactobacillus plantarum CJLP243 strain was produced in the form of freeze-dried powder and stored in a refrigerator, and each piglet was given the feed in an amount of 10^10 CFU per day. After 3 weeks of oral administration, four piglets per treatment group were autopsied to collect blood and tissue samples so as to determine the effect of the composition on the immunity of the piglets.
(§4) In order to obtain immune cells from the spleen (Spin) and the mesenteric lymph nodes (mLN), the chopped tissue was powdered using a plunger of a syringe and a 70-micrometer cell strainer (BD Falcon), and then the cells were washed using an RPMI-1640 medium (Roswell Park Memorial Institute-1640, Gibco BRL, Grand Island, N.Y., USA). The remaining RBCs (red blood cells) were removed using an RBC lysis buffer (eBioscience, USA) prior to the last washing step. The immune cells collected after the last washing step were stained with Trypan blue and counted with a hemocytometer to be used.
(§5) For evaluation of the inhibitory effect against viral infection, PED virus was incubated in the same manner as in Example 6 described above, and the content thereof was measured. The immune cells obtained from the weaned piglets without feeding of the composition were used as a negative control.

PED virus KPEDV9 = assay: as above; type: in vivo; set-up: key: ++: Complete Inhibition; +: Partial Inhibition; −: Infected; conditions: piglets fed 10^10 CFU per day for 3 weeks; for Inhibitory Effect against PED virus infection, mLN, KPEDV9: immune cells of mesenteric lymph nodes; for Inhibitory Effect against PED virus infection, Spin, KPEDV9: immune cells of spleen
Experimental: as §2, §3, §4, §5

piglets = assay: Immunity of piglets born from fed sows (IgA ELISA); type: in vivo; conditions: 4 days after given colostrum, vs control
Experimental: In order to confirm the effect of the composition including the Lactobacillus plantarum CJLP475 strain and the Lactobacillus plantarum CJLP243 strain on the immunity of piglets born from the sows fed with the composition, an experiment was carried out using sows as in Example 9. Further, blood was collected from the piglets born from the sows 4 days after given colostrum to carry out an immunological analysis using an IgA ELISA kit.

Substance | hemolysis [1] | total IgA content in the serum of sows (sows) | total IgG content in the serum of sows (sows) | Bile-Resistance Assessment, viable cell count 0 hr [2] | Bile-Resistance Assessment, viable cell count 24 hrs [2] | Acid-Resistance Assessment, viable cell count 0 hr [3] | Acid-Resistance Assessment, viable cell count 3 hrs [3] | resistance to antibiotics [4] | inhibitory effect against PED virus infection (microscopy, crystal violet) [5] | Inhibitory Effect against PED virus infection, mLN, SM98 (PED virus SM98) | Inhibitory Effect against PED virus infection, Spin, SM98 (PED virus SM98) | Inhibitory Effect against PED virus infection, mLN, KPEDV9 (PED virus KPEDV9) | Inhibitory Effect against PED virus infection, Spin, KPEDV9 (PED virus KPEDV9) | other results
Lactobacillus plantarum CJLP243 | did not show hemolysis | higher than those in the control group | higher than those in the control group | 3.2 × 10^7 CFU/mL | 7.3 × 10^8 CFU/mL | 4.5 × 10^7 CFU/mL | 4.4 × 10^7 CFU/mL | not resistant | the virus infection was suppressed | + | ++ | ++ | ++ | 
Lactobacillus plantarum CJLP475 | did not show hemolysis | higher than those in the control group | higher than those in the control group | 1.3 × 10^8 CFU/mL | 1.1 × 10^7 CFU/mL | 1.1 × 10^6 CFU/mL | 1.1 × 10^7 CFU/mL | not resistant | the virus infection was suppressed | ++ | ++ | ++ | ++ | total IgA antibody titer in the colostrum (sows; sow colostrum during delivery): higher; Radius of Growth Inhibition Area Centered Around Antibiotics ([4]; Amp10 (Ampicillin) disc): 7.5 mm; Radius of Growth Inhibition Area Centered Around Antibiotics ([4]; C30 (Clindamycin) disc): 7 mm; Radius of Growth Inhibition Area Centered Around Antibiotics ([4]; CN120 (Gentamicin) disc): 5 mm; Radius of Growth Inhibition Area Centered Around Antibiotics ([4]; DA2 (Streptomycin) disc): 4.5 mm; Radius of Growth Inhibition Area Centered Around Antibiotics ([4]; E15 (Erythromycin) disc): 12 mm; Radius of Growth Inhibition Area Centered Around Antibiotics ([4]; K30 (Kanamycin) disc): 1.5 mm; Radius of Growth Inhibition Area Centered Around Antibiotics ([4]; S10 (Chloramphenicol) disc): 3.5 mm; Radius of Growth Inhibition Area Centered Around Antibiotics ([4]; SAM20 (Ampicillin/Sulbactam) disc): 7 mm; total IgA content in the piglet serum (piglets): higher
